The numbers were not newly measured in patent US20210361620A1 (Biosential, Inc., priority 2018, published 2021), which cites them from elsewhere.

One series has as its system humans. The note with it: for potential side effects of supplementation: tryptophan: dose not given, melatonin: 1 mg to 5 mg, uncommon.
Series [1] has as its system subjects with mild insomnia or longer-than-average sleep latency. Particulars: for effect on sleep (hypnotic effect): ingestion of a sufficient quantity.
For another series, the target named is serum albumin (Homo sapiens, UniProt P02768). Particulars: after ingestion and absorption.
Sequence of serum albumin (P02768 25-609): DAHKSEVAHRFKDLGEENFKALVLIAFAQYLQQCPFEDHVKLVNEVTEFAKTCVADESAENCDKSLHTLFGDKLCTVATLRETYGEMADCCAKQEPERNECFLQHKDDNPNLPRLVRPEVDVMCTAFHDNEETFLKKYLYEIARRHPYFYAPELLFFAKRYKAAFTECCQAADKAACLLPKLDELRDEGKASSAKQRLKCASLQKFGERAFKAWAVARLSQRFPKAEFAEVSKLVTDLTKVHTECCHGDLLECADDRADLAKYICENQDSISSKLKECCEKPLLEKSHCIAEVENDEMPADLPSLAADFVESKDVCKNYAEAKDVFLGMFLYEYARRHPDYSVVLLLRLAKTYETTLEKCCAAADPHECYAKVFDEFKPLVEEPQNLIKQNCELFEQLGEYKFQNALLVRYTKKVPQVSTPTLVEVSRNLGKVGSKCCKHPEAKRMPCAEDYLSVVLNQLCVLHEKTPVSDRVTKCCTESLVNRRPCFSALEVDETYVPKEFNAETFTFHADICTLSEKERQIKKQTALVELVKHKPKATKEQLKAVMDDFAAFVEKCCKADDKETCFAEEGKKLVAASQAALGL

On to `COc1ccc2[nH]cc(CCNC(C)=O)c2c1` [melatonin], for which, in the series on humans (daytime use), the “side effects of supplementation during the day” value is “sleepiness and hypothermia”. For the same molecule, the “potential side effects of supplementation” value with humans is “drowsiness, headache, dizziness and nausea”. Further, the “effect on sleep (hypnotic effect)” value in series [1] is “reduce sleep latency, increase sleep duration and efficiency, and regulate the sleep-wake cycle”. In addition, the “effect on glucose metabolism” value in the series on rats was “antihyperglycemic effect”.

On to `N[C@@H](Cc1c[nH]c2ccccc12)C(=O)O` [tryptophan], for which, on serum albumin, the “fraction bound to serum albumin in the circulation” value is on record as “approximately 80%” and the “fraction circulating as free tryptophan” value was 20%. In the series with humans, the “potential side effects of supplementation” value is “drowsiness and minimal weight loss”. Further, in series [1] (doses above 12,000 mg), the “effect on sleep architecture at very high dose” value was “disrupt sleep architecture”. The “effect on sleep (hypnotic effect)” value in series [1] was “consistently reduces sleep latency”.
